According to paper PMC11783601, “Analogue-Sensitive Inhibition of Histone Demethylases Uncovers Member-Specific Function in Ribosomal Protein Synthesis” (Journal of the American Chemical Society, 2025):

Tested on: TET2
Assay: MALDI-based assay for TET2 on 5-mC DNA substrate
Type: biochemical, human
Settings: MALDI-TOF, 5mC oligonucleotide
Procedure: Aliquots were kept on ice for 10 minutes before addition of 200
µM 2OG or equivalent volume of water. After 30-60 minutes incubation at 37 °C, 1 µL sample and
1 µL S-DHB matrix were spotted on a MALDI plate and monitored with Bruker FlexControl in
the reflectron positive mode and analyzed on Bruker FlexAnalysis software. Relative inhibition
was monitored via assessing percent product decrease with L-Leu NOG samples compared to no
temperature for 10 minutes.

## CC(C)CC(NC(=O)C(=O)O)C(=O)O (stereo not shown) [compound 6, N-oxalyl leucine]
  inhibition of TET2: No inhibition
